Experimental data published in US8178506B2, “Oligomeric compounds and compositions for use in modulation of small non-coding RNAs” (Regulus Therapeutics Inc., priority 2003, dated 2012).
In the oligonucleotide strings, read from the 5' end, every base follows the letter of its sugar. An asterisk marks phosphorothioate; unmarked linkages are phosphodiester. Other units and linkages are bracketed, terminal groups are in braces. A string of capitals states the bases alone. e = 2'-O-(2-methoxyethyl) (MOE); [5mC] = 5-methylcytosine; d = 2'-deoxy (DNA)

Assays:
[1] = system: T47D cells; experiment: Caspase-3 activity assay (apoptosis) in T47D cells; conditions: for Fold Increase over UTC (caspase activity) / Fold Increase over UTC (caspase-3 activity, apoptosis): T47D cells, 48 hours; for Fold Increase over UTC (caspase activity) / apoptosis in T47D cells: 200 nM; for Fold Increase over UTC (caspase activity): relative to untreated control; for Fold Increase over UTC (caspase-3 activity, apoptosis): 200 nM oligomeric compound; for apoptosis in T47D cells: caspase assay, conclusion from Tables 9-12
[2] = system: HeLa cells; experiment: Cell cycle assay in HeLa cells; type: cell-based, human; conditions: for % cells aneuploid / % cells in cell cycle phase G1 / % cells in cell cycle phase G2/M / % cells in cell cycle phase S / % cells in cell cycle phase subG1 / % cells in cell cycle phase: G1 / % cells in cell cycle phase: G2/M / % cells in cell cycle phase: S / % cells in cell cycle phase: aneuploid / % cells in cell cycle phase: subG1: HeLa cells, 150 nM oligomeric compound; for % cells aneuploid / % cells in cell cycle phase G1 / % cells in cell cycle phase G2/M / % cells in cell cycle phase S / % cells in cell cycle phase subG1: relative to untreated control (UTC = 100); for % cells in cell cycle phase: G1 / % cells in cell cycle phase: G2/M / % cells in cell cycle phase: S / % cells in cell cycle phase: aneuploid / % cells in cell cycle phase: subG1: 48 hours after treatment, relative to untreated control (UTC=100); for phase of the cell cycle in which cells arrest or delay: HeLa, 150 nM

328421 (antisense eG*e[5mC]*eT*eT*eA*dG*d[5mC]*dT*dG*dT*dG*dT*d[5mC]*dT*dT*eA*e[5mC]*eA*eG*e[5mC]) [compound 328421]
Fold Increase over UTC (caspase activity) [1]: 1.2 | % cells aneuploid ([2]; 24 hours): 70% | % cells in cell cycle phase G1 ([2]; 24 hours): 47% | % cells in cell cycle phase G2/M ([2]; 24 hours): 200% | % cells in cell cycle phase S ([2]; 24 hours): 105% | % cells in cell cycle phase subG1 ([2]; 24 hours): 288% | % cells in cell cycle phase: G1 [2]: 30% | % cells in cell cycle phase: G2/M [2]: 198% | % cells in cell cycle phase: S [2]: 202% | % cells in cell cycle phase: aneuploid [2]: 64% | % cells in cell cycle phase: subG1 [2]: 1103%

328374 (eA*eG*e[5mC]*eT*eT*dT*dA*dG*d[5mC]*dT*dG*dG*dG*dT*d[5mC]*eA*eG*eG*eA*e[5mC]; antisense) [compound 328374]
Fold Increase over UTC (caspase-3 activity, apoptosis) ([1]; experiment of Table 11): 1.1 fold | % cells aneuploid ([2]; 24 hours): 97% | % cells in cell cycle phase G1 ([2]; 24 hours): 54% | % cells in cell cycle phase G2/M ([2]; 24 hours): 162% | % cells in cell cycle phase S ([2]; 24 hours): 115% | % cells in cell cycle phase subG1 ([2]; 24 hours): 198% | % cells in cell cycle phase: G1 [2]: 65% | % cells in cell cycle phase: G2/M [2]: 143% | % cells in cell cycle phase: S [2]: 157% | % cells in cell cycle phase: aneuploid [2]: 71% | % cells in cell cycle phase: subG1 [2]: 787%

ISIS 328421: 5-10-5 2′-MOE gapmer PS; targets mir-30d pri-miRNA (eG*e[5mC]*eT*eT*eA*dG*d[5mC]*dT*dG*dT*dG*dT*d[5mC]*dT*dT*eA*e[5mC]*eA*eG*e[5mC])
apoptosis in T47D cells [1]: induce apoptosis | phase of the cell cycle in which cells arrest or delay ([2]; 24 hours): G2/M-phase | phase of the cell cycle in which cells arrest or delay ([2]; 48 hours): S- and G2/M-phases

SEQ ID NO 519: gapmer of Tables 9-12 having this SEQ ID NO (antisense eG*eG*eG*e[5mC]*e[5mC]*dT*dA*dT*d[5mC]*d[5mC]*dA*dA*dA*dG*dT*eG*eA*e[5mC]*eA*eG)
apoptosis in T47D cells [1]: induce apoptosis

328416 (antisense eA*e[5mC]*eA*eT*eT*dG*d[5mC]*dT*dA*dT*d[5mC]*dA*dT*dA*dA*eG*eA*eG*e[5mC]*eT) [compound 328416]
Fold Increase over UTC (caspase activity) [1]: 0.9

328413 (antisense eA*eA*eT*eT*eG*dT*dA*dT*dG*dA*d[5mC]*dA*dT*dT*dA*eA*eA*eT*e[5mC]*eA) [compound 328413]
Fold Increase over UTC (caspase-3 activity, apoptosis) ([1]; experiment of Table 11): 0.8 fold

328389 (eG*eG*e[5mC]*eA*e[5mC]*dT*dT*d[5mC]*dA*dT*dT*dG*d[5mC]*dT*dG*e[5mC]*eT*eG*e[5mC]*e[5mC]; antisense) [compound 328389]
Fold Increase over UTC (caspase-3 activity, apoptosis) ([1]; experiment of Table 12): 1.1 fold

TGCCATGAGATTCAACAGTC (2'-MOE gapmer, phosphorothioate, chemistry not fully specified) [ISIS 328415]
apoptosis in T47D cells [1]: induce apoptosis

328395 (antisense e[5mC]*e[5mC]*e[5mC]*eA*eG*dT*dG*dG*dT*dG*dG*dG*dT*dG*dT*eG*eA*e[5mC]*e[5mC]*e[5mC]) [compound 328395]
Fold Increase over UTC (caspase-3 activity, apoptosis) ([1]; experiment of Table 10): 1.0 fold

ISIS 328391: 5-10-5 2′-MOE gapmer PS; targets hypothetical miRNA-044 pri-miRNA (eA*eT*eG*eG*eT*dA*dA*dT*dT*dT*d[5mC]*dA*dT*dT*dT*e[5mC]*eA*eG*eG*e[5mC])
apoptosis in T47D cells [1]: prevent or have a protective effect from apoptosis

328695 (eG*eG*eA*eT*eT*dT*dA*dA*dA*d[5mC]*dG*dG*dT*dA*dA*eA*e[5mC]*eA*eT*e[5mC]; antisense) [compound 328695]
Fold Increase over UTC (caspase-3 activity, apoptosis) ([1]; experiment of Table 11): 0.8 fold

328689 (eT*eA*e[5mC]*eA*eA*dT*dT*dT*dG*dG*dG*dA*dG*dT*d[5mC]*e[5mC]*eT*eG*eA*eA; antisense) [compound 328689]
Fold Increase over UTC (caspase-3 activity, apoptosis) ([1]; experiment of Table 11): 0.8 fold

AAAAATAATCTCTGCACAGG (antisense; same sequence listed as MOE 5-10-5 gapmer and as uniform MOE, further chemistry not given here) [ISIS 328657]
apoptosis in T47D cells [1]: prevent or have a protective effect from apoptosis

CCGAGGGTCTAACCCAGCCC (antisense; same sequence listed as MOE 5-10-5 gapmer and as uniform MOE, further chemistry not given here) [ISIS 328638]
apoptosis in T47D cells [1]: prevent or have a protective effect from apoptosis

SEQ ID NO 496: gapmer of Tables 9-12 having this SEQ ID NO (antisense eT*eT*eA*eT*e[5mC]*dG*dG*dA*dA*d[5mC]*dT*dT*d[5mC]*dA*d[5mC]*eA*eG*eA*eG*eA)
apoptosis in T47D cells [1]: induce apoptosis

AGCCAGTGTGTAAAATGAGA (2'-MOE gapmer, phosphorothioate, further chemistry not given here) [ISIS 328700]
apoptosis in T47D cells [1]: prevent or have a protective effect from apoptosis

328391 (eA*eT*eG*eG*eT*dA*dA*dT*dT*dT*d[5mC]*dA*dT*dT*dT*e[5mC]*eA*eG*eG*e[5mC]; antisense) [compound 328391]
Fold Increase over UTC (caspase activity) [1]: 0.8

328402 (antisense eT*eT*eG*eA*eA*d[5mC]*dT*d[5mC]*d[5mC]*dA*dT*dG*d[5mC]*d[5mC]*dA*e[5mC]*eA*eA*eG*eG) [compound 328402]
Fold Increase over UTC (caspase-3 activity, apoptosis) ([1]; experiment of Table 10): 1.2 fold

ISIS 328381: 5-10-5 2′-MOE gapmer PS; targets mir-214 pri-miRNA (eA*e[5mC]*eA*eG*eG*dT*dG*dA*dG*d[5mC]*dG*dG*dA*dT*dG*eT*eT*e[5mC]*eT*eG)
apoptosis in T47D cells [1]: induce apoptosis

328379 (e[5mC]*eT*eG*eA*e[5mC]*dT*dG*dA*dG*dA*d[5mC]*dT*dG*dT*dT*e[5mC]*eA*e[5mC]*eA*eG; antisense) [compound 328379]
Fold Increase over UTC (caspase-3 activity, apoptosis) ([1]; experiment of Table 12): 1.1 fold

ACTGATTCAAGAGCTTTGTA (antisense; same sequence listed as MOE 5-10-5 gapmer and as uniform MOE, further chemistry not given here) [ISIS 328648]
apoptosis in T47D cells [1]: induce apoptosis

328414 (antisense e[5mC]*eT*eT*e[5mC]*eA*dA*dG*dT*dG*d[5mC]*dA*dG*d[5mC]*d[5mC]*dG*eT*eA*eG*eG*e[5mC]) [compound 328414]
Fold Increase over UTC (caspase-3 activity, apoptosis) ([1]; experiment of Table 12): 0.9 fold

328387 (eT*eT*eA*eT*e[5mC]*dG*dG*dA*dA*d[5mC]*dT*dT*d[5mC]*dA*d[5mC]*eA*eG*eA*eG*eA; antisense) [compound 328387]
Fold Increase over UTC (caspase-3 activity, apoptosis) ([1]; experiment of Table 12): 1.4 fold

328399 (antisense eA*eT*eG*eG*eG*dT*dA*d[5mC]*d[5mC]*dA*d[5mC]*d[5mC]*dA*dG*dA*eA*e[5mC]*eA*eT*eG) [compound 328399]
Fold Increase over UTC (caspase-3 activity, apoptosis) ([1]; experiment of Table 10): 1.0 fold

328652 (eG*eG*e[5mC]*e[5mC]*eT*dA*dA*dT*dA*dT*d[5mC]*d[5mC]*d[5mC]*dT*dA*e[5mC]*e[5mC]*e[5mC]*e[5mC]*eA; antisense) [compound 328652]
Fold Increase over UTC (caspase-3 activity, apoptosis) ([1]; experiment of Table 10): 1.2 fold

328639 (eG*eA*e[5mC]*eT*eA*d[5mC]*dT*dG*dT*dT*dG*dA*dG*dA*dG*eG*eA*eA*e[5mC]*eA; antisense) [compound 328639]
Fold Increase over UTC (caspase-3 activity, apoptosis) ([1]; experiment of Table 11): 0.8 fold

328425 (antisense eG*eA*e[5mC]*e[5mC]*eT*dG*d[5mC]*dT*dA*d[5mC]*dT*d[5mC]*dA*d[5mC]*dT*e[5mC]*eT*e[5mC]*eG*eT) [compound 328425]
Fold Increase over UTC (caspase-3 activity, apoptosis) ([1]; experiment of Table 10): 0.8 fold

328693 (eT*eT*eT*eG*eA*dT*dT*dT*dT*dA*dA*dT*dT*d[5mC]*d[5mC]*eA*eA*eA*e[5mC]*eT; antisense) [compound 328693]
Fold Increase over UTC (caspase-3 activity, apoptosis) ([1]; experiment of Table 12): 1.0 fold
